Measured values as given in patent publication US11472803B2, “7-substituted 1-aryl-naphthyridine-3-carboxylic acid amides and use thereof” (Bayer Aktiengesellschaft, priority 2016, dated 2022).

Target: T1, human M2 receptor (Homo sapiens, UniProt P08172)
T1 construct: expressed in transfected cells; host or cells: CHO-DUKX (CHO-DUKX-M2-GIRK)
T1 sequence (P08172 1-466): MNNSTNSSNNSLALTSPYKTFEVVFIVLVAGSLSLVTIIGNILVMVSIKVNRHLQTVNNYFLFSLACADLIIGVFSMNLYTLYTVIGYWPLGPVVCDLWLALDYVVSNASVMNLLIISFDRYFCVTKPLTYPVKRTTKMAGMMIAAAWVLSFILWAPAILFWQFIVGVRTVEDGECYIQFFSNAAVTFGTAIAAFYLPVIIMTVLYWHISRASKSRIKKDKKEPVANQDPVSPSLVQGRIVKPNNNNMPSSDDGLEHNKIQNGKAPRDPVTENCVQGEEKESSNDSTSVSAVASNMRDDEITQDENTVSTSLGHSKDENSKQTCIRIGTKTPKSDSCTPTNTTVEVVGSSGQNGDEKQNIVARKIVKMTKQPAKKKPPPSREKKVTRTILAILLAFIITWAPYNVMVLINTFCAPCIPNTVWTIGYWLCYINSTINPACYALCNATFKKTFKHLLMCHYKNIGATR
Assay: Functional M2-GIRK1/4 activation test: allosteric potency (EC50) and efficiency at EC20 acetylcholine
Format: cell-based
Conditions: CHO-DUKX-M2-GIRK cells; for EC50: voltage-sensitive dye, acetylcholine at EC20, in some cases mean of two or more determinations; for Emax / Efficiency: boosting of the acetylcholine effect at EC20 acetylcholine concentration
Method in brief: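 Positive allosteric modulation measured as boosting of an EC20 acetylcholine response: hyperpolarization via GIRK1/4 in CHO-DUKX-M2-GIRK cells, monitored by membrane-potential dye fluorescence over 60 s after agonist, compound preadded. Hill-function fit gives EC50 and efficiency.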

Row | EC50 [nM] | Emax [%] | Efficiency [%] | Compound
1 | 19 | 100 |  | CCC(COC(F)(F)F)NC(=O)c1cn(-c2c(F)cc(F)cc2F)c2nc(N3CC[C@H](O)C3)c(F)cc2c1=O (single isomer, unassigned) [Example 110]
2 | 13 |  | 97 | CCC(COC(F)(F)F)NC(=O)c1cn(-c2c(F)cc(F)cc2F)c2nc(N3C[C@@H](O)[C@@H](O)C3)c(F)cc2c1=O (single isomer, unassigned) [Example 97]
3 | 2.3 | 96 |  | O=C(Nc1c(Cl)cccc1Cl)c1cn(-c2c(F)cc(F)cc2F)c2nc(N3C[C@@H](O)[C@H](O)C3)c(F)cc2c1=O [Example 130, N-(2,6-Dichlorophenyl)-7-[(3R,4R)-3,4-dihydroxypyrrolidin-1-yl]-6-fluoro-4-oxo-1-(2,4,6-trifluorophenyl)-1,4-dihydro-1,8-naphthyridine-3-carboxamide]
4 | 530 | 77 |  | Cc1cc(F)cc(C)c1-n1cc(C(=O)N[C@H](C2CC2)C(F)(F)F)c(=O)c2cc(F)c(N3C[C@@H](O)CC3=O)nc21 [Example 177, N-[(1R)-1-Cyclopropyl-2,2,2-trifluoroethyl]-6-fluoro-1-(4-fluoro-2,6-dimethylphenyl)-7-[(4S)-4-hydroxy-2-oxopyrrolidin-1-yl]-4-oxo-1,4-dihydro-1,8-naphthyridine-3-carboxamide]
5 | 7 |  | 94 | CC(NC(=O)c1cn(-c2c(F)cc(F)cc2F)c2nc(N3CC[C@H](O)C3)c(F)cc2c1=O)C(F)(F)C(F)(F)F (single isomer, unassigned) [Example 114]
6 | 13.5 | 100 |  | O=C(N[C@@H](C1CC1)C(F)(F)F)c1cn(-c2c(F)cc(F)cc2F)c2nc(N3C[C@@H](O)[C@@H](O)C3)c(F)cc2c1=O [Example 101, N-[(1S)-1-Cyclopropyl-2,2,2-trifluoroethyl]-7-[(3R,4S)-3,4-dihydroxypyrrolidin-1-yl]-6-fluoro-4-oxo-1-(2,4,6-trifluorophenyl)-1,4-dihydro-1,8-naphthyridine-3-carboxamide]
7 | 5.9 | 100 |  | O=C(N[C@@H](C1CC1)C(F)(F)F)c1cn(-c2c(F)cc(F)cc2Cl)c2nc(N3CC(CO)(CO)C3)c(F)cc2c1=O [Example 69, 7-[3,3-Bis(hydroxymethyl)azetidin-1-yl]-1-(2-chloro-4,6-difluorophenyl)-N-[(1S)-1-cyclopropyl-2,2,2-trifluoroethyl]-6-fluoro-4-oxo-1,4-dihydro-1,8-naphthyridine-3-carboxamide]
8 | 53 | 100 |  | CC[C@H](NC(=O)c1cn(-c2ncc(F)cc2F)c2nc(N3CC[C@H](O)C3)c(F)cc2c1=O)C(F)(F)F [Example 152, 1-(3,5-Difluoropyridin-2-yl)-6-fluoro-7-[(3S)-3-hydroxypyrrolidin-1-yl]-4-oxo-N-[(2S)-1,1,1-trifluorobutan-2-yl]-1,4-dihydro-1,8-naphthyridine-3-carboxamide]
9 | 51 | 100 |  | O=C(NC(C(F)(F)F)C(F)(F)F)c1cn(-c2ncc(F)cc2F)c2nc(N3CCC[C@@H]3CO)c(F)cc2c1=O [Example 197, 1-(3,5-Difluoropyridin-2-yl)-6-fluoro-N-(1,1,1,3,3,3-hexafluoropropan-2-yl)-7-[(2R)-2-(hydroxymethyl)pyrrolidin-1-yl]-4-oxo-1,4-dihydro-1,8-naphthyridine-3-carboxamide]
10 | 31.5 | 94 |  | CC(NC(=O)c1cn(-c2c(F)cc(F)cc2F)c2nc(N3CC[C@H](O)[C@@H]3CO)c(F)cc2c1=O)C(F)(F)C(F)(F)F (single isomer, unassigned) [Example 194]
11 | 140 | 65 |  | C[C@H]1CN(c2nc3c(cc2F)c(=O)c(C(=O)N[C@@H](C2CC2)C(F)(F)F)cn3-c2c(F)cc(F)cc2F)CCN1 [Example 82, N-[(1S)-1-Cyclopropyl-2,2,2-trifluoroethyl]-6-fluoro-7-[(3S)-3-methylpiperazin-1-yl]-4-oxo-1-(2,4,6-trifluorophenyl)-1,4-dihydro-1,8-naphthyridine-3-carboxamide]
12 | 4.03 | 100 |  | CCC(COC(F)(F)F)NC(=O)c1cn(-c2c(F)cc(F)cc2F)c2nc(N3C[C@@H](O)[C@H](O)C3)c(F)cc2c1=O (stereo partly drawn) [Example 26, 7-[(3R,4R)-3,4-dihydroxypyrrolidin-1-yl]-6-fluoro-4-oxo-N-[(2)-1-(trifluoromethoxy)butan-2-yl]-1-(2,4,6-trifluorophenyl)-1,4-dihydro-1,8-naphthyridine-3-carboxamide]
13 | 1.6 | 100 |  | CCC(CC)(CC)NC(=O)c1cn(-c2c(F)cc(F)cc2F)c2nc(N3C[C@@H](O)[C@@H](O)C3)c(F)cc2c1=O [Example 77, 7-[(3R,4S)-3,4-Dihydroxypyrrolidin-1-yl]-N-(3-ethylpentan-3-yl)-6-fluoro-4-oxo-1-(2,4,6-tri-fluorophenyl)-1,4-dihydro-1,8-naphthyridine-3-carboxamide]
14 | 7.7 | 100 |  | CCC(COC(F)(F)F)NC(=O)c1cn(-c2c(F)cc(F)cc2F)c2nc(N3CC[C@H](O)C3)c(F)cc2c1=O (mixture of isomers) [Example 109, 6-Fluoro-7-[(3S)-3-hydroxypyrrolidin-1-yl]-4-oxo-N-[1-(trifluoromethoxy)butan-2-yl]-1-(2,4,6-trifluorophenyl)-1,4-dihydro-1,8-naphthyridine-3-carboxamide]
15 | 73 | 83 |  | Cc1cc(F)cc(C)c1-n1cc(C(=O)N[C@@H](C2CC2)C(F)(F)F)c(=O)c2cc(F)c(N3C[C@@H](O)[C@H](O)C3)nc21 [Example 175, N-[(1S)-1-Cyclopropyl-2,2,2-trifluoroethyl]-7-[(3R,4R)-3,4-dihydroxypyrrolidin-1-yl]-6-fluoro-1-(4-fluoro-2,6-dimethylphenyl)-4-oxo-1,4-dihydro-1,8-naphthyridine-3-carboxamide]
16 | 31 | 85 |  | O=C(NCC(F)(F)F)c1cn(-c2c(F)cc(F)cc2Cl)c2nc(N3C[C@@H](O)[C@H](O)C3)c(F)cc2c1=O [Example 221, 1-(2-Chloro-4,6-difluorophenyl)-7-[(3R,4R)-3,4-dihydroxypyrrolidin-1-yl]-6-fluoro-4-oxo-N-(2,2,2-trifluoroethyl)-1,4-dihydro-1,8-naphthyridine-3-carboxamide]
17 | 7.5 |  | 97 | CCC(NC(=O)c1cn(-c2c(F)cc(F)cc2F)c2nc(N3C[C@@H](O)[C@@H](O)C3)c(F)cc2c1=O)C(C)C (stereo partly drawn) [Example 105, 7-[(3R,4S)-3,4-Dihydroxypyrrolidin-1-yl]-6-fluoro-V-[2-methylpentan-3-yl]-6-fluoro-4-oxo-1-(2,4,6-trifluorophenyl)-1,4-dihydro-1,8-naphthyridine-3-carboxamide]
18 | 9.3 | 99 |  | CCC(C)(C)NC(=O)c1cn(-c2c(F)cc(F)cc2F)c2nc(N3C[C@@H](O)[C@@H](O)C3)c(F)cc2c1=O [Example 79, 7-[(3R,4S)-3,4-Dihydroxypyrrolidin-1-yl]-6-fluoro-N-(2-methylbutan-2-yl)-4-oxo-1-(2,4,6-tri-fluorophenyl)-1,4-dihydro-1,8-naphthyridine-3-carboxamide]
19 | 16 | 98 |  | C[C@@H](NC(=O)c1cn(-c2c(F)cc(F)cc2F)c2nc(N3C[C@@H](O)[C@H](O)C3)c(F)cc2c1=O)C1CC1 [Example 19, N-[(1R)-1-cyclopropylethyl]-7-[(3R,4R)-3,4-dihydroxypyrrolidin-1-yl]-6-fluoro-4-oxo-1-(2,4,6-trifluorophenyl)-1,4-dihydro-1,8-naphthyridine-3-carboxamide]
20 | 26 | 97 |  | O=C(NC(C(F)(F)F)C(F)(F)F)c1cn(-c2c(F)cc(F)cc2F)c2nc(N3CCCC[C@@H]3CO)c(F)cc2c1=O [Example 188, 6-Fluoro-N-(1,1,1,3,3,3-hexafluoropropan-2-yl)-7-[(2R)-2-(hydroxymethyl)piperidin-1-yl]-4-oxo-1-(2,4,6-trifluorophenyl)-1,4-dihydro-1,8-naphthyridine-3-carboxamide]
21 | 2610 | 75 |  | CC(COC(F)(F)F)NC(=O)c1cn(-c2ccc(F)cc2F)c2ncc(Cl)cc2c1=O (racemic) [Example 135, 6-Chloro-1-(2,4-difluorophenyl)-4-oxo-N-[1-(trifluoromethoxy)propan-2-yl]-1,4-dihydro-1,8-naphthyridine-3-carboxamide]
22 | 66 |  | 95 | CC(NC(=O)c1cn(-c2ncc(F)cc2F)c2nc(N3CC[C@H](O)C3)c(F)cc2c1=O)C(F)(F)C(F)(F)F (single isomer, unassigned) [Example 129]
23 | 150 | 87 |  | O=C(N[C@@H](C1CC1)C(F)(F)F)c1cn(-c2c(F)cc(F)cc2F)c2nc(N3CCNCC3)c(F)cc2c1=O [Example 81, N-[(1S)-1-Cyclopropyl-2,2,2-trifluoroethyl]-6-fluoro-4-oxo-7-(piperazin-1-yl)-1-(2,4,6-trifluorophenyl)-1,4-dihydro-1,8-naphthyridine-3-carboxamide]
24 | 260 |  | 67 | C[C@@H](NC(=O)c1cn(-c2c(F)cc(F)cc2Cl)c2nc(N3C[C@@H](O)[C@H](O)C3)c(F)cc2c1=O)C(F)(F)F (single isomer, unassigned) [Example 229]
